Measured values published in PMC10991509, “A phase I study of ATR inhibitor gartisertib (M4344) as a single agent and in combination with carboplatin in patients with advanced solid tumours” (British Journal of Cancer, 2024).

How the values were obtained:
UGT1A1 [1] = molecular target: UGT1A1 (Canis lupus familiaris, UniProt A0A8I3S535); experiment: UGT1A1 inhibition in dog liver microsomes
UGT1A1 [2] = molecular target: T1, UGT1A1 (Homo sapiens, UniProt P22309); experiment: UGT1A1 inhibition in human liver microsomes; assay type: in vitro ADME; conditions: value (standard error)
T1 construct: from tissue; host or cells: human liver microsomes
T1 sequence (P22309 26-533): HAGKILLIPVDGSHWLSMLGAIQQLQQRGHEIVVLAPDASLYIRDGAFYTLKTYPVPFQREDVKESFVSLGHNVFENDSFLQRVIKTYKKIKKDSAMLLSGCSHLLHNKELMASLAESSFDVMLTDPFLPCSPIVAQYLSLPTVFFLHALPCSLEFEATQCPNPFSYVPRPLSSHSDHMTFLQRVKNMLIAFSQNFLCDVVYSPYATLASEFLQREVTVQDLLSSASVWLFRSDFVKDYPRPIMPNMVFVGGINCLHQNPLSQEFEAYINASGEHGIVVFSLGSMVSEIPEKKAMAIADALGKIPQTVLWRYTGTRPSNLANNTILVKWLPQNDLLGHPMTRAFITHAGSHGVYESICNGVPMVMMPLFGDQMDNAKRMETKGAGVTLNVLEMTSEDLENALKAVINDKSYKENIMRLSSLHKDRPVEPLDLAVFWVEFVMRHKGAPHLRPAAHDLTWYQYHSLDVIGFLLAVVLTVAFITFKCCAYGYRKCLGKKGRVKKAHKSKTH

Chain of UGT1A1 (Canis lupus familiaris, UniProt A0A8I3S535) (A0A8I3S535 entry or part of it): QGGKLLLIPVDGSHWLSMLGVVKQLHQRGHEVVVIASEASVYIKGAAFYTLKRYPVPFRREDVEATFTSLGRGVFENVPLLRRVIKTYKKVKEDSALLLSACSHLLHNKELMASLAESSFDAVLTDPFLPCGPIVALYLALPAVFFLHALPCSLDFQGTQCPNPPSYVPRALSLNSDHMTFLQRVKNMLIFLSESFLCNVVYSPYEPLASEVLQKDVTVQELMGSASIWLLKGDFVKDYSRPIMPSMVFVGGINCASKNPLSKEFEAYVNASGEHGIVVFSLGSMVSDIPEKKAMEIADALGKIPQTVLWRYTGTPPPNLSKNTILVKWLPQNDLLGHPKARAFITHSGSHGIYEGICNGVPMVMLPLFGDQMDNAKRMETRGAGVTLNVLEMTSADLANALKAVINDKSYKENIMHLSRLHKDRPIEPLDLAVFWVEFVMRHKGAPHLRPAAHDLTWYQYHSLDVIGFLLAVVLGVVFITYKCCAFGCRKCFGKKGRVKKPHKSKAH

SMILES: Nc1nn2cc(F)cnc2c1C(=O)Nc1cncc(F)c1N1CCC(C(=O)N2CCN(C3COC3)CC2)CC1 [gartisertib, Gartisertib]
- IC50 (UGT1A1 [1]): > 50 µM
- IC50 (UGT1A1 [2]): 8.36 µM
